Experimental findings from ChEMBL document CHEMBL1139737, “Distachyasin: A new antioxidant metabolite from the leaves of Carex distachya” (Bioorg Med Chem Lett, 2006) are described below.

Common to all, as to assay type: functional
A short description of assay [1]: Inhibition of TBARS formation at 0.5 mg/ml.
The nature of assay [2]: Inhibition of TBARS formation.
Assay [3] can be described thus: Nitric oxide radical scavenging activity.
Assay [4] in a line: Nitric oxide radical scavenging activity assessed as reduction in nitrite concentration at 0.5 mg/ml. On the set-up: scale not given: the % may be the effect or the level left.
A short description of assay [5]: Hydrogen peroxide radical scavenging activity at 0.2 mg/ml.
Assay [6] is described as follows: Superoxide radical scavenging activity at 0.5 mg/ml.
A short description of assay [7]: Hydrogen peroxide radical scavenging activity at 0.1 mg/ml.

In general, inhibition refers to the change of the read-out against control, counted positive when it falls.

Take `COC1=CC(=O)[C@@]2(O)C[C@H]3[C@H](c4ccccc4C3(C)C)[C@@H](O)C2=C1`: the inhibition in assay [1] amounted to 59%. Moreover, the Activity result in assay [2] is “Dose-dependent effect”; in assay [3], “Dose-dependent effect”; in assay [4] it was 10.7%; in assay [5], 39%; in assay [6], 60%; in assay [7] it was 32%.
